Results published in article PMC10513218, “Effect of Green and Red Thai Kratom (Mitragyna speciosa) on pancreatic digestive enzymes (alpha-glucosidase and lipase) and acetyl-carboxylase 1 activity: A possible therapeutic target for obesity prevention” (PLOS ONE, 2023).
Where “and” joins values, the source holds several entries; their conditions need not be identical. Identical values can stand only once. Like-named read-outs stand apart in the source and are kept apart here.

Legend:
[1] = target: T1, alpha-glucosidase (Saccharomyces cerevisiae, UniProt P53341); test: Inhibition of alpha-glucosidase with pNPG as substrate; format: biochemical; settings: for Mode of inhibition of alpha-glucosidase: Lineweaver-Burk plots
Method: Inhibition of alpha-glucosidase was performed using p-nitrophenol-α-D-glucopyranoside (pNPG) as a substrate. […] After 10 min, the reactions were started with the addition of pNPG at 0.007, 0.015, 0.03, 0.06, 0.125, 0.25, and 5 mM. The mode of inhibition and inhibition constant (Ki) were determined by Lineweaver-Burk plots.

[2] = tested on: T2, ACC1; test: ACC1 inhibition assay (ACC1 Assay Kit, acetyl-CoA decrease by HPLC); format: biochemical; settings: for Effect on ACC1 activity: 0, 1, 10, 100 μM
T2 construct: purchased BPS Bioscience (USA)
Method: An ACC1 inhibition assay was performed using the ACC1 Assay Kit from BPS Bioscience (USA) following the manufacturer’s protocol. […] After a 10-minute pre-incubation period, the reaction was initiated by adding 0.1 ng/mL of ACC1 enzyme. The reactions were allowed to proceed for 40 minutes before being terminated by the addition of 100 μl of chilled acetonitrile. The samples were then centrifuged, and the supernatants were carefully transferred to new tubes for analysis. The rate of reaction was quantified by monitoring the decrease in acetyl-CoA substrate concentration using a C18 HPLC column, employing a mobile phase consisting of a linear gradient of water and methanol.

[3] = target: T3, lipase (Homo sapiens, UniProt P16233); test: Inhibition of lipase with pNPP as substrate; format: biochemical
T3 sequence (P16233 17-465): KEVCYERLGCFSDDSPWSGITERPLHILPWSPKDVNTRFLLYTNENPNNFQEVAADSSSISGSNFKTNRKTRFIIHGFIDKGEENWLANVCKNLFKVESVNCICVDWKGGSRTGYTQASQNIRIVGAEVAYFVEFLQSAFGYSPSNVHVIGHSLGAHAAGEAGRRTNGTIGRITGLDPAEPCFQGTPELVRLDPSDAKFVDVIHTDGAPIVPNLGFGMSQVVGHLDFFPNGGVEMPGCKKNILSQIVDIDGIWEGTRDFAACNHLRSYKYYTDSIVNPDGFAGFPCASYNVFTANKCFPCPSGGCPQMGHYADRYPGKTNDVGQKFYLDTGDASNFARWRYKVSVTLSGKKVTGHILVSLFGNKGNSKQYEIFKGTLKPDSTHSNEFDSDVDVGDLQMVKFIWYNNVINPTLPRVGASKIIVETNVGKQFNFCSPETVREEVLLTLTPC
Method: Inhibition of lipase was performed using p-nitrophenyl palmitate (pNPP) as a substrate. […] The IC50 was determined by plotting the remaining activity of lipase at each inhibitor concentration and […]. […] After 10 min, the reactions were started by the addition of pNPP at 0.02, 0.03, 0.06, 0.125, 0.25, 3.5 and 5 mM. The mode of inhibition and inhibition constant (Ki) were determined by Lineweaver-Burk plots.

[4] = target: T1, alpha-glucosidase; parameters: method as in doi:10.1016/j.fshw.2014.11.003; settings: cited from earlier work
[5] = HFD-induced rats, versus control group; cited from earlier work

T1 sequence (P53341 whole entry): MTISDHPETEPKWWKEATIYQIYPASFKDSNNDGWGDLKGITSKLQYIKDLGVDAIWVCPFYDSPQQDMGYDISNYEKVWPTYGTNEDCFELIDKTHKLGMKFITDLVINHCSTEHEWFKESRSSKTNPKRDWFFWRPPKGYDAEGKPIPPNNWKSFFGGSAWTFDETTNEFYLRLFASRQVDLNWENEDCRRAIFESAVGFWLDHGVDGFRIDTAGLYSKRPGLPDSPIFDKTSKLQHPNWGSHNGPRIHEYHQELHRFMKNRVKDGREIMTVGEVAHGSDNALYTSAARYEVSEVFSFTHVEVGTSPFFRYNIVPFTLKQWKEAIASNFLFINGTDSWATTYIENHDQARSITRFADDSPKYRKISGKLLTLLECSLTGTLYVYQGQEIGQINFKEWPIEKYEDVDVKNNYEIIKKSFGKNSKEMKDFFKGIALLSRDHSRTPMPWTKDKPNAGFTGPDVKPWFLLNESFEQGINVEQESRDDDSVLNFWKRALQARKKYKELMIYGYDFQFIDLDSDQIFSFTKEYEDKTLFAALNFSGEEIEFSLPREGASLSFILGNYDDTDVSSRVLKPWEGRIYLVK

| SMILES | Mode of inhibition of alpha-glucosidase [1] | Effect on ACC1 activity [2] | Mode of inhibition of lipase ([3]; Lineweaver-Burk plots) | also measured |
| --- | --- | --- | --- | --- |
| C[C@H]1O[C@H](O[C@H]2[C@H](O)[C@@H](O)[C@@H](O[C@H]3[C@H](O)[C@@H](O)C(O)O[C@@H]3CO)O[C@@H]2CO)[C@H](O)[C@@H](O)[C@@H]1N[C@H]1C=C(CO)[C@@H](O)[C@H](O)[C@H]1O (some centres unmarked) [Acarbose, acarbose, reference compound] | Non-competitive inhibition | – | – | – |
| CCC1CN2CCc3c([nH]c4cccc(OC)c34)C2CC1/C(=C\OC)C(=O)OC (centres unmarked) [Mitragynine] | mix-typed inhibition | not and weak inhibitory effect | Competitive inhibition | Alpha-glucosidase IC50 lower than acarbose ([1]; ratio of acarbose IC50 to IC50): 7.3 fold; IC50 [3]: 27.4 ± 2.9 µM; Ki ([3]; Ki lipase, Lineweaver-Burk plots, pNPP): 13.7 µM and 7 µM |
| COc1ccc2c(c1)[nH]c1c3c(c(C)cc12)O[C@](C)(CCC=C(C)C)C=C3 [O-methyl mahanine] | – | – | – | IC50 [4]: 46.1 µM |
| CCCCCCCCCCC[C@@H](C[C@@H]1OC(=O)[C@H]1CCCCCC)OC(=O)[C@H](CC(C)C)NC=O [Orlistat, orlistat, reference compound] | – | – | Competitive inhibition | – |
| O=c1c(O)c(-c2ccc(O)c(O)c2)oc2cc(O)cc(O)c12 [Quercetin] | – | decreased ACC1 activity in a dose-dependent manner | Competitive inhibition | Decrease of ACC1 activity ([2]; 100 μM): 60%; Plasma triglyceride [5]: lower than in the control group |
| C[C@@H]1O[C@@H](OC[C@H]2O[C@@H](Oc3c(-c4ccc(O)c(O)c4)oc4cc(O)cc(O)c4c3=O)[C@H](O)[C@@H](O)[C@@H]2O)[C@H](O)[C@H](O)[C@H]1O [Rutin, rutin] | – | – | – | IC50 ([3]; pure compounds and positive control, pNPP at Km 1.3 mM, unit given, read-out: Half-maximal inhibitory concentration (IC50) Lipase): > 100 µM |
